Experimental data from patent EP0925786A1, “REMEDIES FOR ISCHEMIC DISEASES” (MITSUBISHI CHEMICAL CORPORATION, priority 1996, dated 1998).

Experiments:
male Wistar rats = experiment: Action to improve passive avoidance response after a short period of fore-brain ischemia; type: in vivo, rat; conditions: dose of 1 mg/kg, po, 30 minutes before 5 minutes of ischemia loading; retrieval test 48 hours after reperfusion
Text: Also, animals treated only with cauterization of vertebral arteries were used as a pseudo-operation group. During ischemia and after reperfusion, body temperature of the animals was maintained by putting them on a heat insulating mat until righting reflex was recovered.
An apparatus composed of a light room (50 x 50 x 50 cm) equipped with a 100 W bulb and a dark room (20 x 14 x 20 cm) was used in the passive avoidance response test. Each of the rats which have been subjected to cauterization of both vertebral arteries 48 hours prior to the test was put into the light room and its latency to enter the dark room was measured to be used as the response latency at the time of acquisition trial. […] When each rat entered the dark room, the guillotine door was closed and the rat was immediately exposed to an electric shock (2.9 mA, 5 seconds) from the floor grid, thus completing the acquisition trial. Subsequently, 5 minutes of ischemia loading (occlusion of both common carotid arteries) was carried out under ether anesthesia, and retrieval test was carried out 48 hours after reperfusion. […] Presence or absence of the action to improve passive avoidance response was judged by comparing response latencies of the acquisition trial and retrieval test. Each drug to be tested was orally administered 30 minutes before the ischemia loading.

[1] = Formation of active metabolite in blood (dog sera, HPLC); type: in vitro ADME; conditions: same procedure
[2] = Formation of active metabolite in blood (human sera, HPLC); type: in vitro ADME; conditions: same procedure
in vivo = conditions: both sexes, SD, rat, po
[3] = Formation of active metabolite in blood (rat serum incubation, HPLC); type: in vitro ADME; conditions: final concentration 100 µM, 5 minutes of incubation at 37°C
Method: (2S,3S)-2-Acetoxy-3-((S)-4-methyl-2-phenylsulfonylaminovalerylamino)tetrahydrofuran obtained in Inventive Example 2 was dissolved in acetonitrile and added to rat serum to a final concentration of 100 µM. After 5 minutes of incubation at 37°C, this was mixed with acetonitrile and centrifuged and then the thus obtained supernatant fluid was checked by HPLC. It was found as the result that a 97% portion of the thus added (2S,3S)-2-acetoxy-3-((S)-4-methyl-2-phenylsulfonylaminovalerylamino)-tetrahydrofuran was hydrolyzed and converted into its active metabolite (3S)-3-((S)-4-methyl-2-phenylsulfonylaminovalerylamino)-2-tetrahydrofuranol (compound of Inventive Example 1).
HPLC was carried out under the following conditions. • Column: Nucleosil 100 5C18 4.6 x 250 mm (manufactured by Nargel) • Column temperature: 50°C • Mobile phase: CH3CN:H2O:PIC A Low UV (manufactured by Waters) 22:78:1 • Flow rate: 1 ml/min • Detection wave length: UV 222 nm

m-Calpain = target: T1, m-Calpain (Rattus norvegicus, UniProt Q07009); experiment: Measurement of inhibitory activity against calpain; type: biochemical; conditions: m-Calpain purified from rat brain
T1 construct: m-Calpain was purified from rat brain; from tissue; host or cells: rat brain
T1 sequence (Q07009 20-700 limits assumed): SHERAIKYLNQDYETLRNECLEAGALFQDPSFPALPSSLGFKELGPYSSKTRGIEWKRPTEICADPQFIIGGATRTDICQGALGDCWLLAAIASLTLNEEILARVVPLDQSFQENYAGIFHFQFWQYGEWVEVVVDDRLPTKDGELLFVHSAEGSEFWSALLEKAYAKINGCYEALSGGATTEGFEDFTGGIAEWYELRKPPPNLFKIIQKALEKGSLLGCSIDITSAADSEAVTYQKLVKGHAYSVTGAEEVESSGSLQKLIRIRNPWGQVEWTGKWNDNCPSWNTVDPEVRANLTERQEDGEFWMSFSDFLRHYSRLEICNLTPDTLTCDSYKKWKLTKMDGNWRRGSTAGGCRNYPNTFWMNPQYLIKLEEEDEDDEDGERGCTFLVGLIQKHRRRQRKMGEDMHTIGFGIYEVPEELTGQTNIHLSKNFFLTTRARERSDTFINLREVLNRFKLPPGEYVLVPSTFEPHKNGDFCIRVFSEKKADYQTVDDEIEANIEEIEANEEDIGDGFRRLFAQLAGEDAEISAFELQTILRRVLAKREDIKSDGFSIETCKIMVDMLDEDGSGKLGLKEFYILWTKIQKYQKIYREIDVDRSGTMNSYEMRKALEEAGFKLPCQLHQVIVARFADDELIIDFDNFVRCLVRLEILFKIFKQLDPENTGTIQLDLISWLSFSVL
T1 sequence (Q64537 1-270 partner): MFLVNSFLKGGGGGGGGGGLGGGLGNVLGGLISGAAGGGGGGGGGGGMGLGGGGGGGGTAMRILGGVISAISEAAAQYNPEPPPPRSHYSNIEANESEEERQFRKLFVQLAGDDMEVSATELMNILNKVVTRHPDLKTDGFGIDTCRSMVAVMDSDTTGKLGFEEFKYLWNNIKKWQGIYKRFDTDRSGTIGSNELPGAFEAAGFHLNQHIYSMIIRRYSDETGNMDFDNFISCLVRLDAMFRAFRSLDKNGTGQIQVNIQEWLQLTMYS
Method: m-Calpain was purified from rat brain in accordance with the method described in Journal of Biological Chemistry, vol. 259, p. 3210, 1984, and its inhibitory activity was measured in accordance with the method described in Journal of Biological Chemistry, vol. 259, p. 12489, 1984.

female SD rats = experiment: Myocardial infarct size-limiting effect in acute myocardial infarction model of rat; type: in vivo
Method: An experiment was performed on female SD rats (14 weeks of age). The rats were lightly anesthetized with ether and a left thoracotomy wag performed. A permanent occlusion was placed around the proximal left coronary artery to produce acute myocardial infarction. Infarct size evaluated in each excised heart at 24 hours after the ligation.
The animals were divided into 2 groups at random, and 10 mg/kg of the compound of Inventive Example 29 (Compound No.. 426 in Table 2) suspended in water with Tween 80 was orally administered in a volume of 1 ml/kg to each animal of one of these groups (drug group) 1 hour before the coronary artery ligation, while the same volume of tap water was administered to the other group (control group). A rat with successful thoracotomy and which survived until 24 hours after the coronary ligation was used as the final evaluation subject. This study was continued until the final number of animals in each group reached 8.
Evaluation of the myocardial infarct size was carried out in the following manner. Each of the excised heart was cut into the slices at 2 mm thick from apex to base, and the sections were stained by incubating them in TTC solution (1%) at 37°C for 20 minutes to confirm necrotic region and non-necrotic region. Thereafter, sectional images of the sections were photographed to carry out image analysis on a computer. The infarction size was expressed as a % value obtained by dividing total area of necrotic area of all sliced sections by total left ventricle area (including septum part and excluding left ventricle cavity).

## CC(=O)O[C@@H]1OCC[C@@H]1NC(=O)[C@H](CC(C)C)NS(=O)(=O)c1ccccc1 [Inventive Example 2, (2S,3S)-2-acetoxy-3-((S)-4-methyl-2-phenylsulfonylaminovalerylamino)tetrahydrofuran]
Male Wistar rats
  action to improve passive avoidance response: showed the improving action
[1]
  formation of active metabolite: the same active metabolite is formed
[2]
  formation of active metabolite: the same active metabolite is formed
In vivo
  LD50 at 7 days: > 2000 mg/kg
[3]
  portion hydrolyzed and converted into its active metabolite: 97%

## CCCCCCCCCCCCCCOC(=O)N[C@@H](CC(C)C)C(=O)N[C@H]1CCOC1O (stereo partly drawn) [Inventive Example 3, (3S)-3-((S)-4-methyl-2-tetradecyloxycarbonylaminovalerylamino)-2-tetrahydrofuranol]
m-Calpain
  IC50: 110 nM

## CCCCCCCCCCCCCCC(=O)N[C@@H](CC(C)C)C(=O)N[C@H]1CCOC1O (stereo partly drawn) [Inventive Example 8, (3S)-3-((S)-4-methyl-2-pentadecanoylaminovalerylamino)-2-tetrahydrofuranol]
m-Calpain
  IC50: 110 nM

## CCCCCCCCCCCCCCCC(=O)N[C@@H](CC(C)C)C(=O)N[C@H]1CCOC1O (stereo partly drawn) [Inventive Example 9, (3S)-3-((S)-2-hexadecanoylamino-4-methylvalerylamino)-2-tetrahydrofuranol]
m-Calpain
  IC50: 160 nM

## CC(C)C[C@H](NC(=O)c1ccccc1F)C(=O)N[C@H]1CCOC1O (stereo partly drawn) [Inventive Example 10, (3S)-3-{(S)-2-(2-fluorobenzoylamino)-4-methylvalerylamino}-2-tetrahydrofuranol]
m-Calpain
  IC50: 170 nM

## Cc1ccc(C(=O)N[C@@H](CC(C)C)C(=O)N[C@H]2CCOC2O)cc1 (stereo partly drawn) [Inventive Example 12, (3S)-3-{(S)-4-methyl-2-(4-methylbenzoylamino)valerylamino}-2-tetrahydrofuranol]
m-Calpain
  IC50: 330 nM

## CCCCCCCCCCCCCCCCS(=O)(=O)N[C@@H](CC(C)C)C(=O)N[C@H]1CCOC1O (stereo partly drawn) [Inventive Example 13, (3S)-3-((S)-2-hexadecylsufonylamino-4-methylvalerylamino)-2-tetrahydrofuranol]
m-Calpain
  IC50: 420 nM

## COc1ccc(S(=O)(=O)N[C@@H](CC(C)C)C(=O)N[C@H]2CCOC2O)cc1 (stereo partly drawn) [Inventive Example 17, (3S)-3-{(S)-2-(4-methoxyphenylsulfonylamino)-4-methylvalerylamino}-2-tetrahydrofuranol]
m-Calpain
  IC50: 670 nM

## CC(C)C[C@H](NS(=O)(=O)c1ccc2ccccc2c1)C(=O)N[C@H]1CCOC1O (stereo partly drawn) [Inventive Example 18, (3S)-3-{(S)-4-methyl-2-(2-naphthylsulfonylamino)valerylamino}-2-tetrahydrofuranol]
m-Calpain
  IC50: 360 nM

## CC(C)C[C@H](NS(=O)(=O)c1ccccc1)C(=O)N[C@H]1C(C)COC1O (stereo partly drawn) [Inventive Example 19, (3S)-4-methyl-3-((S)-4-methyl-2-phenylsulfonylaminovalerylamino)-2-tetrahydrofuranol]
m-Calpain
  IC50: 2500 nM

## CC(=O)O[C@@H]1OCC[C@@H]1NC(=O)[C@H](CC(C)C)NC(=O)c1ccccc1F [Inventive Example 24, (2S,3S)-2-acetoxy-3-{(S)-2-(2-fluorobenzoylamino)-4-methylvalerylamino}tetrahydrofuran]
Male Wistar rats
  action to improve passive avoidance response: showed the improving action

## CC(=O)O[C@@H]1OCC[C@@H]1NC(=O)[C@H](CC(C)C)NS(=O)(=O)c1c(C)cc(C)cc1C [Inventive Example 29, (2S,3S)-2-acetoxy-3-{(S)-4-methyl-2-(2,4,6-trimethylphenylsulfonylamino)valerylamino}tetrahydrofuran]
Female SD rats; 10 mg/kg orally 1 hour before coronary artery ligation, 24 hours after ligation, necrotic area / total left ventricle area, control 37.3 ± 3.5%
  infarct size: 25.0 ± 1.7%
Female SD rats; 10 mg/kg orally, based on the control group
  infarct size reducing ratio: 33.0%
Female SD rats; drug group 10 mg/kg orally, control group 2
  animals died during the thoracotomy: 3
Female SD rats; drug group 10 mg/kg orally, control group 9
  animals died within 24 hours after the operation: 10
In vivo
  LD50 at 7 days: > 2000 mg/kg
